Experiment in all cases: NCI tumour cell line growth inhibition, 48 h
The test system of assay [1] is ACHN renal.
Assay [2] deals with COLO 205 colon.
Assay [3] relates to DU-145 prostate.
The subject of assay [4] is HT29 colon.
Assay [5] has as its system K-562 leukemia.
The subject of assay [6] is MCF7 breast.
The test system of assay [7] is MDA-N.
For assay [8], the system named is OVCAR-3 ovarian.
For assay [9], the system named is SF-268 CNS.
For assay [10], the system named is SK-MEL-2 melanoma.
The subject of assay [11] is SNB-75 CNS.
The test system of assay [12] is UACC-257 melanoma.
Assay [13] has as its system DMS 114 small cell lung.
Assay [14] concerns KM20L2 colon.

Structures are written as SMILES.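 Step 1: Grow cells in 96-well plates. Step 2: Expose to compound for 48 hours at 5 concentrations. Step 3: Interpolate endpoints linearly; if unreached, use highest concentration. The concentration for 50% growth inhibition is given as GI50. TGI denotes the concentration required for complete inhibition of growth.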

With `N#Cc1ccc(C2ON=C(c3ccccc3)N2C23CC4CC(CC(C4)C2)C3)cc1` (stereo not given), the TGI in [1], in [2], in assay [3], in assay [4], in assay [5] and in assay [6] was over 10 µM each time. Moreover, the TGI in assay [7], in assay [8], in [9], in assay [10], in assay [11] and in assay [12] was over 10 µM throughout.

In the case of `S=C(NCCc1ccccn1)N/N=C(\c1ccccc1)c1ccccn1`, the TGI in assay [1] is 17.9 µM; in assay [2] it was over 100 µM; in assay [3] it was over 48.6 µM; in assay [4], 21.7 µM; in assay [5] it was over 100 µM; in assay [6], over 100 µM. The TGI was over 100 µM in [7]; over 100 µM in assay [8]; over 76.1 µM in assay [9]; over 100 µM in assay [10]; over 78 µM in [11]; over 70.5 µM in [12].

For the molecule `O=C1NC(=O)C(CCC(=O)c2cccc3ccccc23)C(=O)N1`, the TGI in assay [1], in assay [2], in [3], in assay [4], in assay [5] and in assay [6] was over 100 µM in each case. In addition, the TGI in assay [7], in assay [8], in assay [9], in assay [10], in [11] and in [12] was over 100 µM each time.

Take `NC(=O)N/N=C\CC(O)(C(F)(F)Cl)C(F)(F)Cl`: the TGI in [1], in [2], in assay [3], in [4], in assay [5] and in [6] was over 10 µM in each case. Also, the TGI in assay [7], in assay [8], in assay [9], in assay [10], in assay [11] and in assay [12] was over 10 µM each time.

As to `O=C1c2cc3c(cc2CC12Cc1ccccc1C2)CCC3`, the TGI in assay [1] is 97.7 µM; in assay [2] it was 48.5 µM; in assay [3], over 100 µM; in assay [4], 50.5 µM; in assay [5], over 100 µM; in assay [6] it was 54.6 µM. The TGI was 86.8 µM in assay [7]; over 100 µM in assay [8]; 93.7 µM in [9]; 51.8 µM in [10]; 93.8 µM in assay [11]; 54.4 µM in [12].

On to `COc1cc(C2c3cc4c(cc3OC(NNC(N)=S)C2C)OCO4)cc(OC)c1OC` (stereo not given), for which the TGI was over 100 µM in assay [1]; 1.37 µM in assay [2]; over 100 µM in [3]; 2.6 µM in assay [4]; over 100 µM in assay [5]; over 100 µM in [6]. Further, the TGI in assay [7] is over 100 µM; in [8] it was over 57.6 µM; in assay [9], over 100 µM; in [10] it was over 100 µM; in assay [11], over 100 µM; in [12] it was over 92.7 µM.

With `C/C(O)=C(/C=N/C(=S)Nc1ccccc1)C(=O)Nc1ccccc1C`, the TGI in [1], in assay [2], in assay [3], in [4], in assay [5] and in assay [6] was over 100 µM each time. Moreover, the TGI in assay [7], in assay [8], in assay [9], in assay [10], in assay [11] and in [12] was over 100 µM throughout.

On to `Cc1cc(C)c(/C=C2\C(=O)Nc3ccccc32)[nH]1`, for which the TGI in [1], in [2], in assay [3], in assay [4], in [5] and in assay [6] was over 100 µM throughout. For the same molecule, the TGI in [7], in [8], in assay [9], in assay [10], in assay [11] and in assay [12] was over 100 µM throughout.

Turning to `NC(=O)c1ncn(C2C=CC(CP(=O)(O)O)C2)c1N` (stereo not given), the TGI in assay [1], in assay [2], in assay [3], in assay [4], in [5] and in assay [6] was over 100 µM each time. Besides, the TGI in assay [7], in [8], in assay [9], in assay [10], in [11] and in assay [12] was over 100 µM in each case.

With `COc1cc2c(c(OC)c1OC)-c1ccc(SC)c(=O)cc1[C@@H](NC(=O)c1cccc([N+](=O)[O-])c1)CC2`, the TGI in assay [1] is over 100 µM; in assay [2], 0.0343 µM; in assay [13], 0.0365 µM; in assay [4], 0.0708 µM; in assay [5], over 100 µM; in [14], 0.0358 µM. The TGI in [8] was found to be 0.0404 µM; in assay [9], 16.5 µM; in assay [12], 33.9 µM. Also, the GI50 in [13] is 0.0165 µM.

In the case of `Cn1c(-c2ccccc2)cc(-c2ccc3c(c2)OCO3)c1-c1ccsc1`, the TGI in assay [1], in assay [2], in assay [3], in [4], in [5] and in [6] was over 100 µM throughout. The TGI in assay [7], in assay [8], in assay [9], in assay [10], in assay [11] and in assay [12] was over 100 µM in each case.

The values above are taken from PubChem BioAssay (NCI).
